Eight cell lines from the supplement of paper PMC10307832 can be followed below.

What all share (assay): relative viability (nuclei count vs DMSO), 5 days (fraction); higher = more cells survive
Compound in the test “Adavosertib + Foretinib”: C=CCn1c(=O)c2cnc(Nc3ccc(N4CCN(C)CC4)cc3)nc2n1-c1cccc(C(C)(C)O)n1 [Adavosertib] + COc1cc2c(Oc3ccc(NC(=O)C4(C(=O)Nc5ccc(F)cc5)CC4)cc3F)ccnc2cc1OCCCN1CCOCC1 [Foretinib] (partner 0.25 µM)
In outline: (§1)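 Lung cancer cell lines in 1536-well plates got either a single drug or a fixed anchor-drug dose together with five library-drug doses (not always all listed) in √10 steps, by pin tool, on the day after seeding. Nuclei were counted after 5 days, and relative viability is the treated-to-vehicle ratio of nuclei counts. Values are medians of duplicate plates.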

Compound in the test “Adavosertib + Pictilisib”: C=CCn1c(=O)c2cnc(Nc3ccc(N4CCN(C)CC4)cc3)nc2n1-c1cccc(C(C)(C)O)n1 [Adavosertib] + CS(=O)(=O)N1CCN(Cc2cc3nc(-c4cccc5[nH]ncc45)nc(N4CCOCC4)c3s2)CC1 [Pictilisib] (partner 1 µM)
In outline:
as §1

Compound in the test “Nelarabine + Tozasertib”: COc1nc(N)nc2c1ncn2[C@@H]1O[C@H](CO)[C@@H](O)[C@@H]1O [Nelarabine] + Cc1cc(Nc2cc(N3CCN(C)CC3)nc(Sc3ccc(NC(=O)C4CC4)cc3)n2)n[nH]1 [Tozasertib] (partner 0.1 µM)
In outline: as §1

Compound in the test “Nelarabine + Olaparib”: COc1nc(N)nc2c1ncn2[C@@H]1O[C@H](CO)[C@@H](O)[C@@H]1O [Nelarabine] + O=C(c1cc(Cc2n[nH]c(=O)c3ccccc23)ccc1F)N1CCN(C(=O)C2CC2)CC1 [Olaparib] (partner 8 µM)
In outline: as §1

As for SK-MES-1, the relative viability with Adavosertib + Foretinib (first compound 0.01 µM) was 1.02; in the test with Adavosertib + Foretinib (first compound 0.03162 µM), 0.924; with Adavosertib + Foretinib (first compound 0.1 µM) it was 0.866; in the test with Adavosertib + Foretinib (first compound 0.3162 µM), 0.731; in the test with Adavosertib + Pictilisib (first compound 0.01 µM) it was 0.307; with Adavosertib + Pictilisib (first compound 0.03162 µM), 0.343. For the same cell line, the relative viability in the test with Adavosertib + Pictilisib (first compound 0.1 µM) came out at 0.321; with Adavosertib + Pictilisib (first compound 0.3162 µM), 0.213; with Nelarabine + Tozasertib (first compound 0.01 µM), 1; with Nelarabine + Tozasertib (first compound 0.03162 µM) it was 0.89; with Nelarabine + Tozasertib (first compound 0.1 µM) it was 0.944; with Nelarabine + Tozasertib (first compound 0.3162 µM), 0.924. Moreover, the relative viability was found to be 0.937 with Nelarabine + Tozasertib (first compound 1 µM); 0.819 in the test with Nelarabine + Olaparib (first compound 0.01 µM); 0.66 with Nelarabine + Olaparib (first compound 0.03162 µM); 0.707 with Nelarabine + Olaparib (first compound 0.1 µM); 0.773 in the test with Nelarabine + Olaparib (first compound 0.3162 µM); 0.762 with Nelarabine + Olaparib (first compound 1 µM).
Turning to NCI-H2170, the relative viability worked out at 1.02 in the test with Adavosertib + Foretinib (first compound 0.01 µM); 0.603 in the test with Adavosertib + Foretinib (first compound 0.03162 µM); 0.923 in the test with Adavosertib + Foretinib (first compound 0.1 µM); 1.07 with Adavosertib + Foretinib (first compound 0.3162 µM); 0.345 with Adavosertib + Pictilisib (first compound 0.01 µM); 0.308 with Adavosertib + Pictilisib (first compound 0.03162 µM). Also, the relative viability with Adavosertib + Pictilisib (first compound 0.1 µM) was found to be 0.264; with Adavosertib + Pictilisib (first compound 0.3162 µM), 0.31; with Nelarabine + Tozasertib (first compound 0.01 µM), 0.81; with Nelarabine + Tozasertib (first compound 0.03162 µM) it was 0.689; with Nelarabine + Tozasertib (first compound 0.1 µM), 0.767; with Nelarabine + Tozasertib (first compound 0.3162 µM), 0.88. Moreover, the relative viability with Nelarabine + Tozasertib (first compound 1 µM) was 0.73; with Nelarabine + Olaparib (first compound 0.01 µM), 0.708; in the test with Nelarabine + Olaparib (first compound 0.03162 µM), 0.561; in the test with Nelarabine + Olaparib (first compound 0.1 µM) it was 0.61; in the test with Nelarabine + Olaparib (first compound 0.3162 µM), 0.577; in the test with Nelarabine + Olaparib (first compound 1 µM), 0.547.
With NCI-H1648, the relative viability with Nelarabine + Tozasertib (first compound 0.01 µM) is 0.456; with Nelarabine + Tozasertib (first compound 0.03162 µM) it was 0.405; in the test with Nelarabine + Tozasertib (first compound 0.1 µM), 0.43; with Nelarabine + Tozasertib (first compound 0.3162 µM), 0.601; with Nelarabine + Tozasertib (first compound 1 µM) it was 0.383; in the test with Nelarabine + Olaparib (first compound 0.03162 µM) it was 0.927. Moreover, the relative viability with Nelarabine + Olaparib (first compound 0.3162 µM) stood at 0.889; with Nelarabine + Olaparib (first compound 1 µM) it was 0.714.
UMC-11: the relative viability in the test with Adavosertib + Foretinib (first compound 0.01 µM) turned out to be 0.981; in the test with Adavosertib + Foretinib (first compound 0.03162 µM), 1.06; with Adavosertib + Foretinib (first compound 0.1 µM), 1.06; in the test with Adavosertib + Foretinib (first compound 0.3162 µM), 1.08; with Adavosertib + Pictilisib (first compound 0.01 µM), 0.817; in the test with Adavosertib + Pictilisib (first compound 0.03162 µM) it was 0.723. The relative viability in the test with Adavosertib + Pictilisib (first compound 0.1 µM) was found to be 0.743; in the test with Adavosertib + Pictilisib (first compound 0.3162 µM), 0.755; in the test with Nelarabine + Tozasertib (first compound 0.01 µM), 0.185; in the test with Nelarabine + Tozasertib (first compound 0.03162 µM), 0.204; in the test with Nelarabine + Tozasertib (first compound 0.1 µM), 0.378; with Nelarabine + Tozasertib (first compound 0.3162 µM) it was 0.206. Further, the relative viability with Nelarabine + Tozasertib (first compound 1 µM) worked out at 0.204; with Nelarabine + Olaparib (first compound 0.01 µM) it was 0.36; with Nelarabine + Olaparib (first compound 0.03162 µM) it was 0.469; in the test with Nelarabine + Olaparib (first compound 0.1 µM) it was 0.356; in the test with Nelarabine + Olaparib (first compound 0.3162 µM) it was 0.386; with Nelarabine + Olaparib (first compound 1 µM) it was 0.357.
As for HCC-15, the relative viability came to 1.04 with Adavosertib + Foretinib (first compound 0.01 µM); 0.936 with Adavosertib + Foretinib (first compound 0.03162 µM); 1.2 with Adavosertib + Foretinib (first compound 0.1 µM); 1.25 in the test with Adavosertib + Foretinib (first compound 0.3162 µM); 0.724 with Adavosertib + Pictilisib (first compound 0.01 µM); 0.713 with Adavosertib + Pictilisib (first compound 0.03162 µM). Also, the relative viability in the test with Adavosertib + Pictilisib (first compound 0.1 µM) turned out to be 0.727; with Adavosertib + Pictilisib (first compound 0.3162 µM), 0.934; in the test with Nelarabine + Tozasertib (first compound 0.01 µM), 0.48; in the test with Nelarabine + Tozasertib (first compound 0.03162 µM), 0.268; with Nelarabine + Tozasertib (first compound 0.1 µM) it was 0.377; with Nelarabine + Tozasertib (first compound 0.3162 µM), 0.412. Further, the relative viability is 0.39 with Nelarabine + Tozasertib (first compound 1 µM); 0.813 with Nelarabine + Olaparib (first compound 0.01 µM); 0.691 with Nelarabine + Olaparib (first compound 0.03162 µM); 0.931 with Nelarabine + Olaparib (first compound 0.1 µM); 0.667 with Nelarabine + Olaparib (first compound 0.3162 µM); 0.846 with Nelarabine + Olaparib (first compound 1 µM).
Consider HCC-78, for which the relative viability worked out at 0.54 with Adavosertib + Foretinib (first compound 0.01 µM); 0.628 with Adavosertib + Foretinib (first compound 0.03162 µM); 0.587 with Adavosertib + Foretinib (first compound 0.1 µM); 0.628 in the test with Adavosertib + Foretinib (first compound 0.3162 µM); 0.194 with Adavosertib + Pictilisib (first compound 0.01 µM); 0.221 with Adavosertib + Pictilisib (first compound 0.03162 µM). Moreover, the relative viability with Adavosertib + Pictilisib (first compound 0.1 µM) came out at 0.255; with Adavosertib + Pictilisib (first compound 0.3162 µM), 0.171; with Nelarabine + Tozasertib (first compound 0.01 µM), 0.492; with Nelarabine + Tozasertib (first compound 0.03162 µM), 0.415; with Nelarabine + Tozasertib (first compound 0.3162 µM), 0.384; in the test with Nelarabine + Tozasertib (first compound 1 µM), 0.401. For the same cell line, the relative viability with Nelarabine + Olaparib (first compound 0.01 µM) amounted to 1.01; with Nelarabine + Olaparib (first compound 0.03162 µM) it was 0.857; with Nelarabine + Olaparib (first compound 0.3162 µM) it was 0.914; with Nelarabine + Olaparib (first compound 1 µM), 0.87.
With NCI-H647, the relative viability in the test with Adavosertib + Foretinib (first compound 0.01 µM) came to 1.15; with Adavosertib + Foretinib (first compound 0.03162 µM), 1.33; with Adavosertib + Foretinib (first compound 0.1 µM), 1.04; in the test with Adavosertib + Foretinib (first compound 0.3162 µM) it was 1.12; with Adavosertib + Pictilisib (first compound 0.01 µM) it was 0.453; in the test with Adavosertib + Pictilisib (first compound 0.03162 µM) it was 0.471. In addition, the relative viability was determined as 0.405 with Adavosertib + Pictilisib (first compound 0.1 µM); 0.318 in the test with Adavosertib + Pictilisib (first compound 0.3162 µM); 0.347 with Nelarabine + Tozasertib (first compound 0.01 µM); 0.207 with Nelarabine + Tozasertib (first compound 0.03162 µM); 0.387 in the test with Nelarabine + Tozasertib (first compound 0.1 µM); 0.24 in the test with Nelarabine + Tozasertib (first compound 0.3162 µM). The relative viability in the test with Nelarabine + Tozasertib (first compound 1 µM) is 0.247; with Nelarabine + Olaparib (first compound 0.01 µM), 0.57; with Nelarabine + Olaparib (first compound 0.03162 µM), 0.498; with Nelarabine + Olaparib (first compound 0.1 µM) it was 0.633; with Nelarabine + Olaparib (first compound 0.3162 µM), 0.541; with Nelarabine + Olaparib (first compound 1 µM) it was 0.647.
As to NCI-H2009, the relative viability in the test with Adavosertib + Foretinib (first compound 0.01 µM) is 1.17; with Adavosertib + Foretinib (first compound 0.03162 µM), 1.21; with Adavosertib + Foretinib (first compound 0.1 µM), 1.26; with Adavosertib + Foretinib (first compound 0.3162 µM), 1.2; in the test with Adavosertib + Pictilisib (first compound 0.01 µM) it was 0.766; with Adavosertib + Pictilisib (first compound 0.03162 µM) it was 0.847. Besides, the relative viability with Adavosertib + Pictilisib (first compound 0.1 µM) came out at 0.68; with Adavosertib + Pictilisib (first compound 0.3162 µM) it was 0.395; with Nelarabine + Tozasertib (first compound 0.01 µM), 0.893; in the test with Nelarabine + Tozasertib (first compound 0.03162 µM) it was 0.748; in the test with Nelarabine + Tozasertib (first compound 0.1 µM) it was 0.742; with Nelarabine + Tozasertib (first compound 0.3162 µM), 0.812. Further, the relative viability in the test with Nelarabine + Tozasertib (first compound 1 µM) stood at 0.752; with Nelarabine + Olaparib (first compound 0.01 µM) it was 0.746; with Nelarabine + Olaparib (first compound 0.03162 µM) it was 0.607; with Nelarabine + Olaparib (first compound 0.1 µM), 0.834; with Nelarabine + Olaparib (first compound 0.3162 µM), 0.725; in the test with Nelarabine + Olaparib (first compound 1 µM), 0.855.
